Measured values: patent US6482849B1, “Inhibitors of α4β1 mediated cell adhesion” (Tanabe Seiyaku Co., Ltd., priority 1997, dated 2002)
Where two headings read alike, the source gives them in different places.

Experiments:
[1] = target: T1, α4β1 integrin (Jurkat cell adhesion to immobilized CS-1 derived peptide CLHPGEILDVPST) (Homo sapiens, UniProt P05556+P13612); assay: Jurkat-CS-1 Assay; assay type: cell-based; details: Jurkat cells on CS-1 peptide coated plates
T1 construct: 100 μl of Jurkat cells (2.5×10^6 cells/ml) in DMEM plus BSA; endogenous in cells; host or cells: Jurkat T-cell line
T1 sequence (P13612 34-1032): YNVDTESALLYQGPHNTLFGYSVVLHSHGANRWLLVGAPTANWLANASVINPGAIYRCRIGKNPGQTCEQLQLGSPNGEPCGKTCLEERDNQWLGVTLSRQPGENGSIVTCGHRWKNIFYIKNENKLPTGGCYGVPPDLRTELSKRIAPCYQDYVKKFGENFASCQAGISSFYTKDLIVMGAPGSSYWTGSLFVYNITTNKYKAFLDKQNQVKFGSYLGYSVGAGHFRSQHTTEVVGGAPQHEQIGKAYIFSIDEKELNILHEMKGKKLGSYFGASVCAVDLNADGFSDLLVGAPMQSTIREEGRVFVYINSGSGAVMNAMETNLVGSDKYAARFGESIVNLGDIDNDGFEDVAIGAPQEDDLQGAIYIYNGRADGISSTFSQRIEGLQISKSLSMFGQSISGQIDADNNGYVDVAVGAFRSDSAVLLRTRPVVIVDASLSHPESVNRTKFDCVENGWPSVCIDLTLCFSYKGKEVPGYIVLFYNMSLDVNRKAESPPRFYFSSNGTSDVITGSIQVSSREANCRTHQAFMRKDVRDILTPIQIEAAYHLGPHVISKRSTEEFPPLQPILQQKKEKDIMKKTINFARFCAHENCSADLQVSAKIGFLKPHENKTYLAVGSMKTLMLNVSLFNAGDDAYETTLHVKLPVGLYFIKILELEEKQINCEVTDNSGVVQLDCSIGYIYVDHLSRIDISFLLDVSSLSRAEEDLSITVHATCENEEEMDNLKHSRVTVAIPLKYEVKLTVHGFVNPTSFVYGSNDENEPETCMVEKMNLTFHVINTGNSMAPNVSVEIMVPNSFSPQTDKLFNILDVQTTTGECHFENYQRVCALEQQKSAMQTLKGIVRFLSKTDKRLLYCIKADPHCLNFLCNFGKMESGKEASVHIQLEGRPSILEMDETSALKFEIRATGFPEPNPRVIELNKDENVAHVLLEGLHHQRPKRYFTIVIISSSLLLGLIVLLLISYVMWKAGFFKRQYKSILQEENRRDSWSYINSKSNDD
T1 sequence (P05556 21-798): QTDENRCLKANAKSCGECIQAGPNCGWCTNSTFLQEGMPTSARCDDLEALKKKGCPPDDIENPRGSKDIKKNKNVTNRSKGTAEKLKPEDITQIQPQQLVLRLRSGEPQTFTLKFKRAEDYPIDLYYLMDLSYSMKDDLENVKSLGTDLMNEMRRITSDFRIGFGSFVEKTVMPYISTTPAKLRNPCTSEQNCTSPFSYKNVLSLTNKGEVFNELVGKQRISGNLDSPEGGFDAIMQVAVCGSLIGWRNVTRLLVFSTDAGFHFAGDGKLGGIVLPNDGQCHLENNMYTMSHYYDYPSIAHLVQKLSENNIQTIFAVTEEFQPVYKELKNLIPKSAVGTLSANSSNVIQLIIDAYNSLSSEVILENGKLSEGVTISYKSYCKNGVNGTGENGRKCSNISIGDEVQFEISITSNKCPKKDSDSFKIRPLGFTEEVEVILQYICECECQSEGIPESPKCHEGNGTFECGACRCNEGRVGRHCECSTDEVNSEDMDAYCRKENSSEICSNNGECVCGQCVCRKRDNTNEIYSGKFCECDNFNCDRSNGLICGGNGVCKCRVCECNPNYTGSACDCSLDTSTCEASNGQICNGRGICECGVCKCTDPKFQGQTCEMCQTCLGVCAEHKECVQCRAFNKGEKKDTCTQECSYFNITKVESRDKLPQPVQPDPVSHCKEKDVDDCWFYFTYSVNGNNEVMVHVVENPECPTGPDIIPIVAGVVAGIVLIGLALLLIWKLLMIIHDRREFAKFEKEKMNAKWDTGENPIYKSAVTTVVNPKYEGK
Method in brief: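 CS-1 peptide was SPDP-crosslinked onto HSA-coated plates and blocked with BSA. Jurkat cells (2.5×10^6 cells/ml) in DMEM/BSA were mixed with compound, generally at 100, 20, 5 and 1.25 μM, and allowed to adhere for 1 hr at 37° C. Bound cells were fixed, stained with toluidine blue and quantified by OD590.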

[2] = test system: VLA-4 integrin-dependent eosinophil infiltration; assay: Dextran pleurisy model (dextran-induced pleural leukocyte infiltration); assay type: in vivo, C57BL/6 mice; details: 4 h post-induction; for change in vivo at 25 mg/kg / change in vivo at 50 mg/kg: Mus musculus; for change in vivo at 25 mg/kg: 25 mg/kg × 2 iv (0h,+1h relative to dextran)
Procedure: C57BL/6 mice (Jackson, Bar Harbor, Me.;), 6-8 weeks old, weighing 20-25 g were used throughout. All mice were acclimated for at least 7-14 days after arrival and maintained under controlled temperature (20-22° C.) and a 12 hr daily light cycle (6.00 A.M.-6.00 P.M.). Mice were housed in laminar flow racks and checked biweekly for viral infections (mouse hepatitis virus, minute virus of mice, rodent orphan parvovirus, Sendai) with kits obtained from Oreganon Teknika (Durham, N.C.) using established enzyme-linked immunoabsorbent assays. Mice testing positive for any of the above were omitted from the study. All mice were fed standard laboratory chow (Upjohn Lab Rodent Irradiated Mouse Chow, #5011-3, PMI Feeds, St. Louis, Mo.) and acidified drinking water (pH 5.0) ad libitum.
Intrapleural injections were made using a 27 G needle cut to 3-4 mm and blunted by filing. Injections were made by inserting the needle between the mid-intercostal ribs on the right side of the thoracic cavity.
Dextran (MW 5-40×10^6, St Louis, Mo.) was injected as a 10% solution in saline in a volume of 100 μl/mouse. Care was taken to avoid bleeding at the site of injection at which the intercostal muscles were cut to facilitate smooth insertion of the needle.
Pleural leukocytes were collected as follows: 4 h post-induction, pleural inflammatory exudate was removed by washing with 2×1.0 ml Ca^++/Mg^++ free HBSS (Gibco, Grand Island, N.Y.) containing 45 mg EDTA/100 ml HBSS, 4° C. Total leukocyte counts were made by hemocytometer following erythrocyte lysis in 2% acetic acid in PBS buffer; exudate leukocyte pellets were resuspended in serum for cytospin preparations and stained (Diff Quik, Baxter Healthcare, McGraw Park, Ill.) for differential leukocyte counts (neutrophils, eosinophils, and mononuclear leukocytes).
The pleural cavities of mice receiving either no intrapleural injection, or saline were washed and the cells counted in the same way to estimate baseline or saline-induced pleural leukocyte counts respectively.
All drugs were dissolved in PBS and the pH adjusted to 7.5 with NaOH. Each drug was administered intravenously through the retroorbital sinus at hourly intervals (0-3 h) starting from time “0” as indicated.
The following camphoric acid analogues were tested for their inhibitory effects on dextran-induced leukocyte infiltration: Examples 4, 12, 54, 63, 166, 93, 180, 181, 183, 184, 217, Camphoric acid or PBS (saline) was administered iv. as a control. Inhibition of eosinophil infiltration, which was suppressed by anti-alpha-4 Mab (PS/2, 50%), was used as a readout of VLA-4 antagonist activity of the camphoric acids tested. Data for neutrophils are also reported.

[3] = target: T2, α4β1 integrin (Jurkat T-cell adhesion to IL-1 stimulated endothelial cell monolayers) (Homo sapiens, UniProt P05556+P13612); assay: Jurkat-Endothelial Cell Adhesion Assay (Jurkat EC); assay type: cell-based; details: Jurkat cells on IL-1 stimulated HUVEC monolayers
T2 construct: a T-cell line, Jurkat, known to express the α4β1 integrin; host or cells: Jurkat T-cell line
T2 sequence (P13612 34-1032): as the sequence (P13612 34-1032) above
T2 sequence (P05556 21-798): as the sequence (P05556 21-798) above
Method in brief: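 BCECF-loaded Jurkat cells (5×10^5) mixed with compound (generally 100, 20, 5 and 1.25 μM) and added to HUVEC monolayers prestimulated 4 hr with 0.1 ng/ml IL-1, in DMEM-HSA. After 5 min on ice and 20 min at 37° C, washed; fluorescence gives % adhesion relative to no-compound control set at 100%.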

[4] = test system: contact hypersensitivity response; details: in vivo; cited from earlier work
[5] = Eosinophil, read-out: %Δ Pleural Leukocytes, Eos
[6] = Eosinophil, 50 mg/kg × 2 iv (0h,+1h relative to dextran), read-out: %Δ Pleural Leukocytes, Eos
[7] = Neutrophil, read-out: %Δ Pleural Leukocytes, Neutro
[8] = Neutrophil, 50 mg/kg × 2 iv (0h,+1h relative to dextran), read-out: %Δ Pleural Leukocytes, Neutro
[9] = 50 mg/kg × 2 iv (0h,+1h relative to dextran)
[10] = 50 mg/kg × 4 iv (0h,+1h,+2h,+3h relative to dextran)

Row | Compound | IC50 [1] [nM] | change in vivo at 25 mg/kg [2, 5] [%] | change in vivo at 50 mg/kg [2, 6] [%] | change in vivo at 25 mg/kg [2, 7] [%] | change in vivo at 50 mg/kg [2, 8] [%] | IC50 [3] [nM] | melting point | Contact hypersensitivity response [4] | %Δ Pleural Leukocytes, Eos [2, 9] | %Δ Pleural Leukocytes, Neutro [2, 9] | %Δ Pleural Leukocytes, Eos [2, 10] | %Δ Pleural Leukocytes, Neutro [2, 10] | change in vivo at 50 mg/kg ([2]; Eosinophil, 50 mg/kg × 4 iv (0h,+1h,+2h,+3h relative to dextran), read-out: %Δ Pleural Leukocytes, Eos) [%] | change in vivo at 50 mg/kg ([2]; Neutrophil, 50 mg/kg × 4 iv (0h,+1h,+2h,+3h relative to dextran), read-out: %Δ Pleural Leukocytes, Neutro) [%]
1 | CC1(C)[C@@H](C(=O)N[C@@H](Cc2ccc(NC(=O)c3c(Cl)cccc3Cl)cc2)C(=O)O)CC[C@@]1(C)C(=O)NCC(=O)O [Example 181, (1S-cis)-N-[[3-[[(Carboxymethyl)amino]carbonyl]-2,2,3-trimethylcyclopentyl]carbonyl]-4-[(2,6-dichlorobenzoyl)amino]-L-phenylalanine] | ≤ 80 | -50 to -10 | -50 to -10 | -50 to -10 | -50 to -10 | ≤ 800 | – | – | – | – | – | – | – | –
2 | CC1(C)[C@@H](C(=O)N[C@@H](Cc2cn(Cc3ccc(Cl)c(Cl)c3)cn2)C(=O)O)CC[C@@]1(C)C(=O)O [Example 4, (1S-cis)-N-[(3-Carboxy-2,2,3-trimethylcyclopentyl)carbonyl]-1-[(3,4-dichlorophenyl)methyl]-L-histidine] | 80 to 500 | – | ≤ -50 | – | -50 to -10 | 800 to 5000 | 148 to 149 °C (dec.) | – | – | – | – | – | – | –
3 | CC1(C)[C@@H](C(=O)N[C@@H](Cc2ccc(NC(=O)c3c(Cl)cc(Cl)cc3Cl)cc2)C(=O)O)CC[C@@]1(C)C(=O)O [Example 93] | ≤ 80 | – | -50 to -10 | – | -10 to 0 | ≤ 800 | – | – | – | – | – | – | – | –
4 | CC1(C)[C@@H](C(=O)N[C@@H](Cc2ccc(NC(=O)c3c(Cl)cccc3Cl)cc2)C(=O)O)CC[C@@]1(C)C(=O)NCC(N)=O [Example 180, (1S-cis)-N-[[3-[[(2-Amino-2-oxoethyl)amino]-carbonyl]-2,2,3-trimethylcyclopentyl]carbonyl]-4-[(2,6-dichlorobenzoyl)amino]-L-phenylalanine] | ≤ 80 | -50 to -10 | -50 to -10 | -50 to -10 | -50 to -10 | ≤ 800 | 203 to 205 °C | – | – | – | – | – | – | –
5 | EILDV | – | – | – | – | – | – | – | blocked | – | – | – | – | – | –
6 | CC1(C)[C@@H](C(=O)N[C@@H](Cc2ccc(NC(=O)c3c(Cl)cccc3Cl)cc2)C(=O)O)CC[C@@]1(C)C(=O)NOCc1ccccc1 [Example 217] | ≤ 80 | – | -50 to -10 | – | -10 to 0 | ≤ 800 | – | – | – | – | – | – | – | –
7 | CC1(C)[C@@H](C(=O)N[C@@H](Cc2ccc(OCc3c(Cl)cccc3Cl)cc2)C(=O)O)CC[C@@]1(C)C(=O)O (relative stereo) [Example 12, (1S-cis)-N-[(3-Carboxy-2,2,3-trimethylcyclopentyl)carbonyl]-O-[(2,6-dichlorophenyl)methyl]-L-tyrosine] | ≤ 80 | – | – | – | – | ≤ 800 | – | – | A (A≦−50) | B (−50<B<−10) | A (A≦−50) | B (−50<B<−10) | – | –
8 | CC1(C)[C@@H](C(=O)N[C@@H](Cc2ccc(OCc3c(Cl)cccc3Cl)c([N+](=O)[O-])c2)C(=O)O)CC[C@@]1(C)C(=O)O [Example 63] | ≤ 80 | -50 to -10 | -50 to -10 | -50 to -10 | -50 to -10 | 800 to 5000 | 92 to 94 °C | – | – | – | – | – | – | –
9 | CC1(C)[C@@H](C(=O)N[C@@H](Cc2ccc(NC(=O)c3c(Cl)cccc3Cl)cc2)C(=O)O)CC[C@@]1(C)C#N [Example 184, (1S-cis)-N-[[3-Cyano-2,2,3-trimethylcyclopentyl]carbonyl]-4-[(2,6-dichlorobenzoyl)amino]-L-phenylalanine] | ≤ 80 | -50 to -10 | ≤ -50 | -50 to -10 | -50 to -10 | ≤ 800 | – | – | – | – | – | – | – | –
10 | CC1(C)[C@@H](C(=O)N[C@@H](Cc2ccc(NC(=O)c3c(Cl)cccc3Cl)cc2)C(=O)O)CC[C@@]1(C)C(N)=O [Example 166] | ≤ 80 | – | -50 to -10 | – | -10 to 0 | ≤ 800 | 196 to 198 °C | – | – | – | – | – | – | –
11 | CC1(C)[C@@H](C(=O)N[C@@H](Cc2ccc(NC(=O)c3c(Cl)cccc3Cl)cc2)C(=O)O)CC[C@@]1(C)C(=O)O [Example 54, (1S-cis)-N-[(3-Carboxy-2,2,3-trimethylcyclopentyl)carbonyl]-4-[(2,6-dichlorobenzoyl)amino]-L-phenylalanine] | ≤ 80 | – | – | – | – | ≤ 800 | 231 to 233 °C | – | – | – | – | – | ≤ -50 | -50 to -10
